Experimental findings from patent US20190322676A1, “CERAMIDE GALACTOSYLTRANSFERASE INHIBITORS FOR THE TREATMENT OF DISEASE” (BioMarin Pharmaceutical Inc., priority 2016, published 2019) are described below.

Counter-ions that a name gives are not always drawn. Where only a bound is given, the exact number is not on record here.

For this experiment, the target named is T1, human CGT (ceramide galactosyltransferase), CHO/CGT lysate (Homo sapiens, UniProt Q16880).
T1 construct: Full-length human CGT cDNA was cloned into the BamH1/Xho1 site of pcDNA3.1 (+); expressed in transfected cells; host or cells: Chinese hamster ovary (CHO) cells; lysate prepared with M-PER
T1 sequence (Q16880 21-541): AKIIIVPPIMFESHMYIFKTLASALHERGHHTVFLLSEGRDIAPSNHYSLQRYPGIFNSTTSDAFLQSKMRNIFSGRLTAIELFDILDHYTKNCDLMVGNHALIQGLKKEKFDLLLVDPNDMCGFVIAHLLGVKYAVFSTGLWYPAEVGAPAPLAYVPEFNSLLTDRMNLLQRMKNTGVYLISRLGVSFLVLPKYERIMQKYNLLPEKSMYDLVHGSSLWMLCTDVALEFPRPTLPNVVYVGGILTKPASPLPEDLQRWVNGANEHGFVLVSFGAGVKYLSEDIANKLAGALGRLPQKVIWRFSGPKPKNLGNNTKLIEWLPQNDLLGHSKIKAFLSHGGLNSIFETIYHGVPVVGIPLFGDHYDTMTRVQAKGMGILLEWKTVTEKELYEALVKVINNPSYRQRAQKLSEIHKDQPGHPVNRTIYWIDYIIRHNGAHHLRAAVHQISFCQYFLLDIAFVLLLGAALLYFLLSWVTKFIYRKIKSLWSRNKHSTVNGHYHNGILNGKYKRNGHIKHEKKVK
In words: CGT enzyme assay, RapidFire/MS/MS readout with 0.01% Tween added (Table 1 ranges with two asterisks **). Type of experiment: biochemical. Conditions: CGT enzymatic assay; range with two asterisks (**): RapidFire/MS/MS method with 0.01% Tween added. The essentials:
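Lysate (4 μg) of CHO cells transfected with full-length human CGT incubated 1 h at 37 °C with compound (0.001–50 μM) in pH 7.2 HEPES buffer with 10 μM C6-NBD-dihydro-ceramide, 17.5 μM UDP-galactose, Mg2+/Mn2+, CHAPS, BSA, 0.5% DMSO; ** set also contained 0.01% Tween 80. Product quantified by RapidFire/MS/MS, normalized to internal standard; IC50 from sigmoidal variable-slope fits.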
In general, IC50 refers to the midpoint of a concentration-inhibition curve. With `N[C@H]1CC2CCC1N2C(=O)[C@@H](NS(=O)(=O)c1ccc2cc(OC3CCCC3)ccc2c1)C(F)(F)c1ccc(-c2ccc(Cl)cc2)cc1` (stereo partly drawn) [Compound 180-1, N-((2R)-3-((2S)-2-amino-7-azabicyclo[2.2.1]heptan-7-yl)-1-(4′-chloro-[1,1′-biphenyl]-4-yl)-1,1-difluoro-3-oxopropan-2-yl)-6-(cyclopentyloxy)naphthalene-2-sulfonamide], the IC50 lay within 1 to 10 µM.
Then `N[C@H]1CC2CCC1N2C(=O)[C@H](NS(=O)(=O)c1ccc2cc(OC3CCCC3)ccc2c1)C(F)(F)c1ccc(-c2ccc(Cl)cc2)cc1` (stereo partly drawn) [Compound 180-2, N-((2S)-3-((2S)-2-amino-7-azabicyclo[2.2.1]heptan-7-yl)-1-(4′-chloro-[1,1′-biphenyl]-4-yl)-1,1-difluoro-3-oxopropan-2-yl)-6-(cyclopentyloxy)naphthalene-2-sulfonamide], with 10 to 30 µM; and `N[C@@H]1CC2CCC1N2C(=O)[C@H](NS(=O)(=O)c1ccc2cc(OC3CCCC3)ccc2c1)C(F)(F)c1ccc(-c2ccc(Cl)cc2)cc1` (stereo partly drawn) [Compound 180-3, N-((2S)-3-((2R)-2-amino-7-azabicyclo[2.2.1]heptan-7-yl)-1-(4′-chloro-[1,1′-biphenyl]-4-yl)-1,1-difluoro-3-oxopropan-2-yl)-6-(cyclopentyloxy)naphthalene-2-sulfonamide], with 1 to 10 µM.
Consider `N[C@@H]1CC2CCC1N2C(=O)[C@@H](NS(=O)(=O)c1ccc2cc(OC3CCCC3)ccc2c1)C(F)(F)c1ccc(-c2ccc(Cl)cc2)cc1` (some centres unmarked) [Compound 180-4], for which the IC50 was 1 to 10 µM.
As for `NC1CCN(C(=O)[C@@H](NS(=O)(=O)c2ccc(OCC3CCCCC3)cc2)C(F)(F)c2cccc(-c3ccc(Cl)cc3)c2)CC1` [Compound 181-1, (R)—N-(3-(4-aminopiperidin-1-yl)-1-(4′-chloro-[1,1′-biphenyl]-3-yl)-1,1-difluoro-3-oxopropan-2-yl)-4-(cyclohexylmethoxy)benzenesulfonamide trifluoroacetate], the IC50 was in the range of 1 to 10 µM.
`NC1CCN(C(=O)[C@H](NS(=O)(=O)c2ccc(OCC3CCCCC3)cc2)C(F)(F)c2cccc(-c3ccc(Cl)cc3)c2)CC1` [Compound 181-2, (S)—N-(3-(4-aminopiperidin-1-yl)-1-(4′-chloro-[1,1′-biphenyl]-3-yl)-1,1-difluoro-3-oxopropan-2-yl)-4-(cyclohexylmethoxy) benzenesulfonamide trifluoroacetate] gave a concentration for half-maximal inhibition (IC50) of 1 to 10 µM.
In the case of `NC1CCN(C(=O)[C@@H](NS(=O)(=O)c2ccc3cc(OC4CCCC4)ccc3c2)C(F)(F)c2ccc(C3(C(F)(F)F)CC3)cc2)CC1` [Compound 182-1, (R)—N-(3-(4-aminopiperidin-1-yl)-1,1-difluoro-3-oxo-1-(4-(1-(trifluoromethyl)cyclopropyl)phenyl)propan-2-yl)-6-(cyclopentyloxy)naphthalene-2-sulfonamide trifluoroacetate], the half-inhibitory concentration (IC50) was under 1 µM.
Molecule `NC1CCN(C(=O)[C@H](NS(=O)(=O)c2ccc3cc(OC4CCCC4)ccc3c2)C(F)(F)c2ccc(C3(C(F)(F)F)CC3)cc2)CC1` [Compound 182-2, (S)—N-(3-(4-aminopiperidin-1-yl)-1,1-difluoro-3-oxo-1-(4-(1-(trifluoromethyl)cyclopropyl)phenyl)propan-2-yl)-6-(cyclopentyloxy) naphthalene-2-sulfonamide trifluoroacetate] returned a 50% inhibitory concentration (IC50) of 10 to 30 µM.
Then `N[C@H]1[C@@H]2CC[C@H]1CN(C(=O)[C@@H](NS(=O)(=O)c1ccc(OCC3CCCCC3)cc1)C(F)(F)c1ccc(-c3ccc(Cl)cc3)cc1)C2` [Compound 183-1, N-((R)-3-((1R,5S,8R)-8-amino-3-azabicyclo[3.2.1]octan-3-yl)-1-(4′-chloro-[1,1′-biphenyl]-4-yl)-1,1-difluoro-3-oxopropan-2-yl)-4-(cyclohexylmethoxy)benzenesulfonamide], with under 1 µM; and `NC1C2CCC1CN(C(=O)[C@H](NS(=O)(=O)c1ccc(OCC3CCCCC3)cc1)C(F)(F)c1ccc(-c3ccc(Cl)cc3)cc1)C2` (stereo partly drawn) [Compound 183-2, N-((S)-3-((1R,5S,8S)-8-amino-3-azabicyclo[3.2.1]octan-3-yl)-1-(4′-chloro-[1,1′-biphenyl]-4-yl)-1,1-difluoro-3-oxopropan-2-yl)-4-(cyclohexylmethoxy)benzenesulfonamide], with 1 to 10 µM.
The molecule `N[C@H]1[C@@H]2CC[C@H]1CN(C(=O)[C@@H](NS(=O)(=O)c1ccc3cc(OC4CCCC4)ccc3c1)C(F)(F)c1ccc(-c3ccc(Cl)cc3)cc1)C2` [Compound 184-1, N-((R)-3-((1R,5S,8R)-8-amino-3-azabicyclo[3.2.1]octan-3-yl)-1-(4′-chloro-[1,1′-biphenyl]-4-yl)-1,1-difluoro-3-oxopropan-2-yl)-6-(cyclopentyloxy)naphthalene-2-sulfonamide] returned a concentration for half-maximal inhibition (IC50) of 1 to 10 µM.
The molecule `N[C@H]1[C@@H]2CC[C@H]1CN(C(=O)[C@H](NS(=O)(=O)c1ccc3cc(OC4CCCC4)ccc3c1)C(F)(F)c1ccc(-c3ccc(Cl)cc3)cc1)C2` [Compound 184-2, N-((S)-3-((1R,5S,8S)-8-amino-3-azabicyclo[3.2.1]octan-3-yl)-1-(4′-chloro-[1,1′-biphenyl]-4-yl)-1,1-difluoro-3-oxopropan-2-yl)-6-(cyclopentyloxy)naphthalene-2-sulfonamide] had a half-inhibitory concentration (IC50) of 1 to 10 µM.
Regarding `NC1CCN(C(=O)[C@@H](NS(=O)(=O)c2ccc(CCOC3CCCC3)cc2)C(F)(F)c2ccc(-c3ccc(Cl)cc3)cc2)CC1` [Compound 185-1, (R)-N-(3-(4-aminopiperidin-1-yl)-1-(4′-chloro-[1,1′-biphenyl]-4-yl)-1,1-difluoro-3-oxopropan-2-yl)-4-(2-(cyclopentyloxy)ethyl)benzenesulfonamide], the IC50 lay within 10 to 30 µM.
The molecule `NC1CCN(C(=O)[C@H](NS(=O)(=O)c2ccc(CCOC3CCCC3)cc2)C(F)(F)c2ccc(-c3ccc(Cl)cc3)cc2)CC1` [Compound 185-2, (S)-N-(3-(4-aminopiperidin-1-yl)-1-(4′-chloro-[1,1′-biphenyl]-4-yl)-1,1-difluoro-3-oxopropan-2-yl)-4-(2-(cyclopentyloxy)ethyl)benzenesulfonamide] registered an IC50 of 30 to 100 µM.
In turn, `N[C@H]1CCN(C(=O)[C@@H](NS(=O)(=O)c2ccc(OCC3CCCCC3)cc2)C(F)(F)c2ccc(Cl)cc2)C1` [Compound 186-1, N-((R)-3-((S)-3-aminopyrrolidin-1-yl)-1-(4-chlorophenyl)-1,1-difluoro-3-oxopropan-2-yl)-4-(cyclohexylmethoxy)benzenesulfonamide] came in with a concentration for half-maximal inhibition (IC50) of 1 to 10 µM.
Take `N[C@H]1CCN(C(=O)[C@H](NS(=O)(=O)c2ccc(OCC3CCCCC3)cc2)C(F)(F)c2ccc(Cl)cc2)C1` [Compound 186-2, N-((S)-3-((S)-3-aminopyrrolidin-1-yl)-1-(4-chlorophenyl)-1,1-difluoro-3-oxopropan-2-yl)-4-(cyclohexylmethoxy)benzenesulfonamide]: the IC50 lay in the range of 30 to 100 µM.
Then `NC1CCN(C(=O)[C@@H](N(CC(F)(F)F)S(=O)(=O)c2ccc3cc(OC4CCCC4)ccc3c2)C(F)(F)c2ccc(Br)cc2)CC1` [Compound 187-1, (R)-N-(3-(4-aminopiperidin-1-yl)-1-(4-bromophenyl)-1,1-difluoro-3-oxopropan-2-yl)-6-(cyclopentyloxy)-N-(2,2,2-trifluoroethyl)naphthalene-2-sulfonamide], with 30 to 100 µM.
